Values belong to the compound of their own block, whether it stands above or below them.
Assays:
membrane ghosts = assay: Membrane binding stability (MBS) assay in membrane ghosts with 5% albumin; conditions: 24 hours, Table III
Text: Determination of Membrane Binding Stability
For example, very stable binding to membranes might be required for applications such as delivery of therapeutic radionuclides to tumor sites, as loss of compound could lead to the radionuclide producing its toxic effect at non-tumor sites. On the other hand, more rapid loss of compound from biomembranes may be desirable for application involving controlled delivery rates of therapeutic agents. Accordingly, there is described hereinbelow an assay for determining MBS under conditions approximating those found in vivo.
In carrying out this assay, approximately physiological concentrations of serum albumin (5%) are used. […] To better approximate the effects of large fluid volumes to which labelled cells are exposed in vivo, the assay for MBS is carried out by suspending a decreasing number of labeled membrane ghosts in a fixed volume of albumin-containing saline. At 24 hours, the total amount of label present is determined by sampling the well mixed suspension; subsequently, the membrane ghosts are pelleted by centrifugation and the amount of label released into the supernatant is determined and expressed as a percent of total label. Percent retention is plotted against number of ghosts per ml. of suspension, and MBS is determined as the area under the curve between 5×10^7 ghosts/ml. and 4×10^8 ghosts/ml.

[1] = tested on: rabbit hind limb (femoral arterial bed), substance P receptors; assay: Vascular response in rabbit blood perfused hind limb preparation; format: in vivo
Text: The in vivo receptor pharmacology of the compound produced in Example 3d., above, was studied in a rabbit blood perfused hind limb preparation similar to that described by U. Forstermann et al., J. Pharmacol. Exp. Ther., 234: 1055-61 (1987). Blood from a pentobarbital anesthetized, artificially ventilated rabbit was withdrawn from a cannulated carotid artery, passed within medical grade silastic tubing through a constant speed roller pump, and directed to a cannulated femoral artery. Distal perfusion pressure in the femoral arterial bed was measured (in mm Hg) by means of a micropressure transducer (Millar) passed down the perfusion tubing so as to lie just beyond the tip of the femoral catheter. Initially, pump speed was adjusted so that distal perfusion pressure approximated systemic mean arterial blood pressure after which blood flow was kept constant for the remainder of each experiment. Changes in resistance then varied directly as distal perfusion pressure in a manner similar to that described by Ohm's law, such that:
Vascular Resistance=Perfusion Pressure Blood Flow
Thus, by maintaining blood flow constant for the duration of each experiment, changes in distal perfusion pressure directly reflected vascular resistance such that a decrease in pressure signifies vasodilation and an increase in pressure signifies vasoconstriction. Direct injection into the perfusion circuit could thus be used to assess the vascular biology and pharmacology of substances believed to exert actions on in vivo vascular smooth muscle tone.

[2] = tested on: red blood cell ghosts (plasma membrane); assay: Membrane retention coefficient (MRC) in red blood cell ghosts; format: binding; conditions: for Δ MRC: change in MRC to 24 hr
Description: Determination of Membrane Retention Coefficient
The membrane retention coefficient (MRC) provides information regarding how well a given compound is retained in the plasma membrane of a cell and is determined as described below.
Generation of red blood cell ghosts for use as a model membrane is achieved by centrifuging whole blood at 300×g for 15 minutes, removal of the plasma and resuspension of the cell pellet in 0.83% (w/v) ammonium chloride. The ghosts are pelleted from the ammonium chloride by centrifuging at 10,000×g for 10 minutes. This ammonium chloride washing procedure is repeated a minimum of five times to insure that complete release of hemoglobin from the cells has occured. The ghosts are labeled with the compound in question at a concentration allowing for detection of the labeled ghosts by instrumental analysis or fluorescent microscopic methods, and at a concentration similar to those that would be used to label cells for a specific application as described above. For the determinations hereinbelow stock solutions of the compounds in question were prepared in ethanol at a molar concentration of 2×10^-3, and working dilutions of the compounds were prepared in iso-osmotic sucrose (52 g/500 ml distilled water). After incubation of the ghosts at an approximate concentration of 1×10^9 ghosts/ml in the working dilutions of the compounds for 10 minutes, the samples were centrifuged at 10,000×g to pellet the ghosts and the staining solution was aspirated from the samples. The labeled ghosts were resuspended in 1 ml of phosphate buffered saline solution containing 10% fetal bovine serum (PBS-FBS). Triplicate 20 ul aliquots were removed from each sample for the determination of the amount of total compound present. The samples were centrifuged as described above and triplicate 20 ul aliquots were removed from the supernatant for quantitative determination of amount of unbound compound present.
After sampling, the supernatant was aspirated and the red cell ghost pellet was resuspended in 1.0 ml of the PBS-FBS, which was once again sampled as described above. This procedure was repeated at least six times, allowing for detection of rapidly released compounds and was monitored after times equal to or greater than 24 hours to allow for the detection of more slowly released compounds. For the determination of the amount of compound present in each sample, the 20 ul aliquots were extracted into 3.0 ml of n-butanol by shaking. The samples were centrifuged at 3000×g to remove membrane debris and the butanol fractions were assayed for compound concentration. Fluorescent compounds are assayed in this manner using peak excitation and emission wave lengths for the particular compounds being assayed to determine the fluorescence units for each sample.
The determination of the amount of compound present in each sample as described above allows for the calculation of the MRC for each washing or fixed time point. The value is obtained by the following formula: […]
wherein CT represents the amount of compound present (in units determined by the method used to assay the compound) in the total sample and CS represents the amount of compound present in the supernatant sample for that particular time point. The comparison of the MRC values defines criteria for identification of the compounds of this invention, these criteria being: 1) the MRC values determined for each washing steps should have a value of at least about 90 and 2) the percent difference between MRC values over at least a 24 hour time period should be less than about 10%. [drawing 14]
The data provided in Table I below are the results from one experiment and serve as an example of the MRC determination. […]

MBS (membrane ghosts): 77 ± 1.1%
Compound: CCCCCCCCCCCCCCN1C(=CC=Cc2oc3ccccc3[n+]2CCCCCCCCCCCCCC)Oc2ccccc21 [W]

MBS (membrane ghosts): 93 ± 1.0%
Compound: CCCCCCCCCCCCCCCCCCN1C(=CC=Cc2oc3ccccc3[n+]2CCCCCCCCCCCCCCCCCC)Oc2ccccc21 [Y]

MBS (membrane ghosts): 91 ± 1.3%
Compound: CCCCCCCCCCCCCCN1C(=CC=Cc2sc3ccccc3[n+]2CCCCCCCCCCCCCC)Sc2ccccc21 [X]

MBS (membrane ghosts): 10 ± 2.1%
Compound: CCCCCCCCCCCCCCN1C(=CC=CC2=[N+](CCC)c3ccccc3C2(C)C)C(C)(C)c2ccccc21 [AC]

The remaining lines, values behind:

Compound: CCCCCCCCCCCCCCCCCCCCCCN1C(=CC=Cc2oc3ccccc3[n+]2CCC)Oc2ccccc21 [U]
MBS (membrane ghosts): 47 ± 3.1%

Compound: CC(C)NCC(O)c1ccc(O)c(O)c1 (stereo not shown) [isoproterenol, reference compound]
Effect of antagonist [D-Pro^2,D-Trp^7.9]-substance P on the response ([1]; during infusion of antagonist): not antagonized by the SP antagonist
Hind-limb perfusion pressure response ([1]; local injection, no antagonist): dose related decrease in perfusion pressure

Compound: CCCCCCCCCCCCCCCCCCN1C(=CC=Cc2oc3ccccc3[n+]2CCCCC)Oc2ccccc21 [J]
Membrane retention coefficient (MRC), 24 HR [2]: 87.24
Δ MRC [2]: 10.57%
Membrane retention coefficient (MRC), WASH 1 [2]: 94.07
Membrane retention coefficient (MRC), WASH 2 [2]: 96.99
Membrane retention coefficient (MRC), WASH 3 [2]: 98.66
Membrane retention coefficient (MRC), WASH 4 [2]: 98.39
Membrane retention coefficient (MRC), WASH 5 [2]: 98.82
Membrane retention coefficient (MRC), WASH 6 [2]: 97.56

Compound: CCCCCCCCCCCCCCCCCCCCCCN1C(=CC=Cc2sc3ccccc3[n+]2CCC)Sc2ccccc21 [V]
MBS (membrane ghosts): 64 ± 3.4%

Compound: CCCCCCCCCCCCCCCCCCCCCCN1C(=CC=Cc2oc3ccccc3[n+]2CCC)Oc2ccccc21 [K]
Membrane retention coefficient (MRC), 24 HR [2]: 97.90
Δ MRC [2]: 1.56%
Membrane retention coefficient (MRC), WASH 1 [2]: 97.35
Membrane retention coefficient (MRC), WASH 2 [2]: 98.47
Membrane retention coefficient (MRC), WASH 3 [2]: 98.16
Membrane retention coefficient (MRC), WASH 4 [2]: 98.99
Membrane retention coefficient (MRC), WASH 5 [2]: 99.01
Membrane retention coefficient (MRC), WASH 6 [2]: 99.46

Compound: CCCCCCCCCCCCCCCCCCCCCC[n+]1c2cc(N(C)C)ccc2cc2ccc(N(C)C)cc21 [L]
Membrane retention coefficient (MRC), 24 HR [2]: 96.82
Δ MRC [2]: 3.12%
Membrane retention coefficient (MRC), WASH 1 [2]: 97.90
Membrane retention coefficient (MRC), WASH 2 [2]: 98.89
Membrane retention coefficient (MRC), WASH 3 [2]: 98.90
Membrane retention coefficient (MRC), WASH 4 [2]: 99.18
Membrane retention coefficient (MRC), WASH 5 [2]: 99.09
Membrane retention coefficient (MRC), WASH 6 [2]: 99.22

Compound: CCCCCCCCCCCCCCCCCCN1C(=CC=Cc2sc3ccccc3[n+]2CCCCCCCCCCCCCCCCCC)Sc2ccccc21 [AA]
MBS (membrane ghosts): 94 ± 1.5%

Compound: CCCCCCCCCCCCCCCCCC[n+]1c2cc(N(C)C)ccc2cc2ccc(N(C)C)cc21 [M]
Membrane retention coefficient (MRC), 24 HR [2]: 42.88
Δ MRC [2]: 55.79%
Membrane retention coefficient (MRC), WASH 1 [2]: 91.01
Membrane retention coefficient (MRC), WASH 2 [2]: 95.12
Membrane retention coefficient (MRC), WASH 3 [2]: 95.82
Membrane retention coefficient (MRC), WASH 4 [2]: 96.42
Membrane retention coefficient (MRC), WASH 5 [2]: 96.27
Membrane retention coefficient (MRC), WASH 6 [2]: 97.01

Compound: CCCCCCCCCCCCCCCCCCCCCCN1C(=CC=Cc2oc3ccccc3[n+]2CCC)Oc2ccccc21 [G]
Membrane retention coefficient (MRC), 24 HR [2]: 96.90
Δ MRC [2]: 1.46%
Membrane retention coefficient (MRC), WASH 1 [2]: 94.42
Membrane retention coefficient (MRC), WASH 2 [2]: 96.96
Membrane retention coefficient (MRC), WASH 3 [2]: 98.03
Membrane retention coefficient (MRC), WASH 4 [2]: 97.93
Membrane retention coefficient (MRC), WASH 5 [2]: 97.92
Membrane retention coefficient (MRC), WASH 6 [2]: 98.34
